Experimental data reported in patent US12077503B2, “Substituted cyclic amides and their use as herbicides” (FMC CORPORATION, priority 2015, dated 2024).

Legend:
Type in all cases: in vivo
[1] = system: barnyardgrass (Echinochloa crus-galli); assay: Test G Pre-Emergence Protocol; settings: Echinochloa crus-galli, pre-emergence, 312 h, evaluated after 13 days; for pest or weed control at 15.625 g/ha: 15.625 g ai/ha, read-out: Barnyard grass damage rating (100=total damage to plant; 0=no damage to plant); for pest or weed control at 62.5 g/ha: 62.5 g ai/ha, 100=total damage to plant, 0=no damage to plant, read-out: plant damage rating, Barnyardgrass; for pest or weed control at 250 g/ha: 250 g ai/ha, read-out: Barnyardgrass damage rating (100=total damage to plant; 0=no damage to plant)
Method in brief: (§1)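 Scores are visual damage ratings from 0 (no damage) to 100 (total plant kill), taken 13 days after treatment. Compound was sprayed one day post-sowing at 15.625, 62.5 or 250 g/ha in 50:50 acetone/water with 0.5% Tween 20.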

corn (Zea mays) [2] = assay: Test G Pre-Emergence Protocol; settings: Zea mays, pre-emergence, 312 h, evaluated after 13 days; for plant injury at 15.625 g/ha: 15.625 g ai/ha; for plant injury at 15.625 g/ha / plant injury at 250 g/ha: read-out: Corn damage rating (100=total damage to plant; 0=no damage to plant); for plant injury at 62.5 g/ha: 62.5 g ai/ha, 100=total damage to plant, 0=no damage to plant, read-out: plant damage rating, Corn; for plant injury at 250 g/ha: 250 g ai/ha
Method in brief: as §1

[3] = system: giant foxtail (Setaria faberi); assay: Test G Pre-Emergence Protocol; settings: Setaria faberi, pre-emergence, 312 h, evaluated after 13 days; for pest or weed control at 15.625 g/ha: 15.625 g ai/ha; for pest or weed control at 15.625 g/ha / pest or weed control at 250 g/ha: read-out: Foxtail, Giant damage rating (100=total damage to plant; 0=no damage to plant); for pest or weed control at 62.5 g/ha: 62.5 g ai/ha, 100=total damage to plant, 0=no damage to plant, read-out: plant damage rating, Foxtail, Giant; for pest or weed control at 250 g/ha: 250 g ai/ha
Method in brief: as §1

[4] = system: ivy-leaved morning glory (Ipomoea hederacea); assay: Test G Pre-Emergence Protocol; settings: Ipomoea, pre-emergence, 312 h, evaluated after 13 days; for pest or weed control at 15.625 g/ha: 15.625 g ai/ha, read-out: Morning-glory, Ivy-leaved damage rating (100=total damage to plant; 0=no damage to plant); for pest or weed control at 62.5 g/ha: 62.5 g ai/ha, 100=total damage to plant, 0=no damage to plant, read-out: plant damage rating, Morningglory, Ivy-leaved; for pest or weed control at 250 g/ha: 250 g ai/ha, read-out: Morningglory, Ivy-leaved damage rating (100=total damage to plant; 0=no damage to plant)
Method in brief: as §1

[5] = system: redroot pigweed (Amaranthus retroflexus); assay: Test G Pre-Emergence Protocol; settings: Amaranthus retroflexus, pre-emergence, 312 h, evaluated after 13 days; for pest or weed control at 15.625 g/ha: 15.625 g ai/ha; for pest or weed control at 15.625 g/ha / pest or weed control at 250 g/ha: read-out: Pigweed, Redroot damage rating (100=total damage to plant; 0=no damage to plant); for pest or weed control at 62.5 g/ha: 62.5 g ai/ha, 100=total damage to plant, 0=no damage to plant, read-out: plant damage rating, Pigweed, Redroot; for pest or weed control at 250 g/ha: 250 g ai/ha
Method in brief: as §1

[6] = system: velvetleaf (Abutilon theophrasti); assay: Test G Pre-Emergence Protocol; settings: Abutilon theophrasti, pre-emergence, 312 h, evaluated after 13 days; for pest or weed control at 15.625 g/ha: 15.625 g ai/ha; for pest or weed control at 15.625 g/ha / pest or weed control at 250 g/ha: read-out: Velvetleaf damage rating (100=total damage to plant; 0=no damage to plant); for pest or weed control at 62.5 g/ha: 62.5 g ai/ha, 100=total damage to plant, 0=no damage to plant, read-out: plant damage rating, Velvetleaf; for pest or weed control at 250 g/ha: 250 g ai/ha
Method in brief: as §1

[7] = system: barnyardgrass (Echinochloa crus-galli); assay: Test G Post-Emergence Protocol; settings: Echinochloa crus-galli, post-emergence, 312 h; for pest or weed control at 15.625 g/ha: 15.625 g ai/ha, evaluated after 13 days (100=total damage to plant; 0=no damage to plant), read-out: Barnyardgrass damage rating; for pest or weed control at 62.5 g/ha: 62.5 g ai/ha, read-out: Barnyardgrass damage rating (100=total damage to plant; 0=no damage to plant); for pest or weed control at 62.5 g/ha / pest or weed control at 250 g/ha: evaluated after 13 days; for pest or weed control at 250 g/ha: 250 g ai/ha, read-out: damage to plant, Barnyardgrass (100=total damage to plant; 0=no damage to plant)
Method in brief: (§2)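 Damage was rated 13 days after treatment from 0 (none) to 100 (plant killed). Compound was applied as a spray at 15.625, 62.5 or 250 g/ha in 50:50 acetone/water containing 0.5% Tween 20, onto 8-day-old potted plants kept in a glasshouse (24/16 °C, 14 h light, 65% humidity).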

corn (Zea mays) [8] = assay: Test G Post-Emergence Protocol; settings: Zea mays, post-emergence, 312 h; for plant injury at 15.625 g/ha: 15.625 g ai/ha, evaluated after 13 days (100=total damage to plant; 0=no damage to plant), read-out: Corn damage rating; for plant injury at 62.5 g/ha: 62.5 g ai/ha, read-out: Corn damage rating (100=total damage to plant; 0=no damage to plant); for plant injury at 62.5 g/ha / plant injury at 250 g/ha: evaluated after 13 days; for plant injury at 250 g/ha: 250 g ai/ha, read-out: damage to plant, Corn (100=total damage to plant; 0=no damage to plant)
Method in brief: as §2

[9] = system: giant foxtail (Setaria faberi); assay: Test G Post-Emergence Protocol; settings: Setaria faberi, post-emergence, 312 h; for pest or weed control at 15.625 g/ha: 15.625 g ai/ha, evaluated after 13 days (100=total damage to plant; 0=no damage to plant), read-out: Foxtail, Giant damage rating; for pest or weed control at 62.5 g/ha: 62.5 g ai/ha, read-out: Foxtail, Giant damage rating (100=total damage to plant; 0=no damage to plant); for pest or weed control at 62.5 g/ha / pest or weed control at 250 g/ha: evaluated after 13 days; for pest or weed control at 250 g/ha: 250 g ai/ha, read-out: damage to plant, Foxtail, Giant (100=total damage to plant; 0=no damage to plant)
Method in brief: as §2

[10] = system: ivy-leaved morning glory (Ipomoea hederacea); assay: Test G Post-Emergence Protocol; settings: Ipomoea, post-emergence, 312 h; for pest or weed control at 15.625 g/ha: 15.625 g ai/ha, evaluated after 13 days (100=total damage to plant; 0=no damage to plant), read-out: Morningglory, Ivy-leaved damage rating; for pest or weed control at 62.5 g/ha: 62.5 g ai/ha, read-out: Morningglory, Ivy-leaved damage rating (100=total damage to plant; 0=no damage to plant); for pest or weed control at 62.5 g/ha / pest or weed control at 250 g/ha: evaluated after 13 days; for pest or weed control at 250 g/ha: 250 g ai/ha, read-out: damage to plant, Morningglory, Ivy-leaved (100=total damage to plant; 0=no damage to plant)
Method in brief: as §2

[11] = system: redroot pigweed (Amaranthus retroflexus); assay: Test G Post-Emergence Protocol; settings: Amaranthus retroflexus, post-emergence, 312 h; for pest or weed control at 15.625 g/ha: 15.625 g ai/ha, evaluated after 13 days (100=total damage to plant; 0=no damage to plant), read-out: Pigweed, Redroot damage rating; for pest or weed control at 62.5 g/ha: 62.5 g ai/ha, read-out: Pigweed, Redroot damage rating (100=total damage to plant; 0=no damage to plant); for pest or weed control at 62.5 g/ha / pest or weed control at 250 g/ha: evaluated after 13 days; for pest or weed control at 250 g/ha: 250 g ai/ha, read-out: damage to plant, Pigweed, Redroot (100=total damage to plant; 0=no damage to plant)
Method in brief: as §2

[12] = system: velvetleaf (Abutilon theophrasti); assay: Test G Post-Emergence Protocol; settings: Abutilon theophrasti, post-emergence, 312 h; for pest or weed control at 15.625 g/ha: 15.625 g ai/ha, evaluated after 13 days (100=total damage to plant; 0=no damage to plant), read-out: Velvetleaf damage rating; for pest or weed control at 62.5 g/ha: 62.5 g ai/ha, read-out: Velvetleaf damage rating (100=total damage to plant; 0=no damage to plant); for pest or weed control at 62.5 g/ha / pest or weed control at 250 g/ha: evaluated after 13 days; for pest or weed control at 250 g/ha: 250 g ai/ha, read-out: damage to plant, Velvetleaf (100=total damage to plant; 0=no damage to plant)
Method in brief: as §2

SMILES | pest or weed control at 15.625 g/ha [1] | pest or weed control at 62.5 g/ha [1] | pest or weed control at 250 g/ha [1] | plant injury at 15.625 g/ha (corn (Zea mays) [2]) | plant injury at 62.5 g/ha (corn (Zea mays) [2]) | plant injury at 250 g/ha (corn (Zea mays) [2]) | pest or weed control at 15.625 g/ha [3] | pest or weed control at 62.5 g/ha [3] | pest or weed control at 250 g/ha [3] | pest or weed control at 15.625 g/ha [4] | pest or weed control at 62.5 g/ha [4] | pest or weed control at 250 g/ha [4] | pest or weed control at 15.625 g/ha [5] | pest or weed control at 62.5 g/ha [5] | pest or weed control at 250 g/ha [5] | pest or weed control at 15.625 g/ha [6] | pest or weed control at 62.5 g/ha [6] | pest or weed control at 250 g/ha [6] | pest or weed control at 15.625 g/ha [7] | pest or weed control at 62.5 g/ha [7] | other results
CN1C[C@@H](c2ccc(C(F)(F)F)cc2)[C@H](C(=O)Nc2cc(Cl)nc(Cl)c2)C1=O (racemic) [Compound 1519] | 0% | 0% | 0% | 0% | 0% | 0% | 0% | 0% | 0% | 0% | 0% | 0% | 0% | 0% | 0% | 0% | 0% | 0% | 0% | 0% | pest or weed control at 250 g/ha [7]: 0%; plant injury at 15.625 g/ha (corn (Zea mays) [8]): 10%; plant injury at 62.5 g/ha (corn (Zea mays) [8]): 10%; plant injury at 250 g/ha (corn (Zea mays) [8]): 0%; pest or weed control at 15.625 g/ha [9]: 0%; pest or weed control at 62.5 g/ha [9]: 0%; pest or weed control at 250 g/ha [9]: 0%; pest or weed control at 15.625 g/ha [10]: 0%; pest or weed control at 62.5 g/ha [10]: 0%; pest or weed control at 250 g/ha [10]: 0%; pest or weed control at 15.625 g/ha [11]: 0%; pest or weed control at 62.5 g/ha [11]: 0%; pest or weed control at 250 g/ha [11]: 0%; pest or weed control at 15.625 g/ha [12]: 0%; pest or weed control at 62.5 g/ha [12]: 0%; pest or weed control at 250 g/ha [12]: 0%
CC(C)c1cc(NC(=O)[C@@H]2C(=O)N(C)C[C@H]2c2ccc(C(F)(F)F)cc2)[nH]n1 (racemic) [Compound 1522] | 0% | 0% | 0% | 0% | 0% | 0% | 0% | 0% | 0% | 0% | 0% | 0% | 0% | 0% | 0% | 0% | 0% | 0% | 0% | 0% | pest or weed control at 250 g/ha [7]: 0%; plant injury at 15.625 g/ha (corn (Zea mays) [8]): 0%; plant injury at 62.5 g/ha (corn (Zea mays) [8]): 10%; plant injury at 250 g/ha (corn (Zea mays) [8]): 10%; pest or weed control at 15.625 g/ha [9]: 0%; pest or weed control at 62.5 g/ha [9]: 0%; pest or weed control at 250 g/ha [9]: 0%; pest or weed control at 15.625 g/ha [10]: 0%; pest or weed control at 62.5 g/ha [10]: 0%; pest or weed control at 250 g/ha [10]: 0%; pest or weed control at 15.625 g/ha [11]: 0%; pest or weed control at 62.5 g/ha [11]: 0%; pest or weed control at 250 g/ha [11]: 0%; pest or weed control at 15.625 g/ha [12]: 0%; pest or weed control at 62.5 g/ha [12]: 0%; pest or weed control at 250 g/ha [12]: 0%
